# From ChEMBL document CHEMBL1201862, “PubChem BioAssay data set” (2004)
# Calls of active or inactive are those of the source.
# Experiments:
# [1] = molecular target: T1, Disintegrin and metalloproteinase domain-containing protein 17 (Homo sapiens, UniProt P78536); experiment: exosite inhibitors of ADAM17, dose response, biochemical (AID 743260)
# [2] = inhibition of ADAM10 peptide cleavage – biochemical, FRET peptide substrate, recombinant human ADAM10, selectivity assay for ADAM17 exosite inhibitor project, dose response (AID 743259);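 note: ADAM10 enzyme cleaving a FRET peptide substrate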
# [3] = potency of ADAM10 substrate cleavage blockers – biochemical, QFRET, dose response (AID 743254);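 note: ADAM10 enzyme with the DM2 quenched FRET peptide as substrate; EDANS fluorescence gain as the protease cuts the substrate; inhibitor potency against ADAM10 proteolytic activity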
# [4] = molecular target: T1, Disintegrin and metalloproteinase domain-containing protein 17; experiment: inhibition of ADAM17 substrate cleavage – biochemical, quenched FRET substrate, counter-screen for ADAM10 exosite inhibitor project, dose response (AID 743253)
# HeLa = experiment: viability loss in HeLa cells – cell-based, ATP luminescence, cherry-pick samples, cytotoxicity control, dose response (AID 687004); type: functional; details: Homo sapiens
# [5] = molecular target: T2, Oxysterols receptor LXR-beta (Homo sapiens, UniProt P55055); type: functional, cell-based;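 note: agonist activity at LXR measured by a cell-based luminescence readout across a dose range, run as a counterscreen for daf-12 agonists; HEK293 cells with Gal4-LXR fusion and GAL4-driven luciferase reporter; potency for activation of Gal4-LXR reporter so compounds are agonists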
# T2 sequence (P55055 whole entry): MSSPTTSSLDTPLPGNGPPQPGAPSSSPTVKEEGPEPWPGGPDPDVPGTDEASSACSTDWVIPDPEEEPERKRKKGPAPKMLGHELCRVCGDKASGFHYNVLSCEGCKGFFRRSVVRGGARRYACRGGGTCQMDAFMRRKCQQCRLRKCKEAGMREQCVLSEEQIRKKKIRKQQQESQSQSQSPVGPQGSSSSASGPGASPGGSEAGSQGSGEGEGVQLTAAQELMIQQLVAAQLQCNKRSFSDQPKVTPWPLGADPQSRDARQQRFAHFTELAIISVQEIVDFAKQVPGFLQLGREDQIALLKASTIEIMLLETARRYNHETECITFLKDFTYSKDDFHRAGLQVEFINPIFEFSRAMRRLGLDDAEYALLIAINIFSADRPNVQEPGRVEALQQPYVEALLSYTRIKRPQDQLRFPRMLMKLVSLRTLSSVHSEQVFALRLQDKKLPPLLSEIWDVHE
# [6] = molecular target: Metabotropic glutamate receptor 3 (Rattus norvegicus, UniProt P31422); experiment: inhibitors of rat mGlu3 Galpha15 signaling – TREx293 cells, calcium flux, mGlu3 NAM project, dose response (AID 651840); type: functional
# [7] = T. cruzi growth inhibition in host cells, dose response, cell-based, plate reader, dry powder, set 2 (AID 652275); type: functional
# cells [8] = type: functional, cell-based
# cells [9] = type: functional, cell-based; remark: listed apart in the source
# T1 sequence (P78536 whole entry, the tested form may be a part): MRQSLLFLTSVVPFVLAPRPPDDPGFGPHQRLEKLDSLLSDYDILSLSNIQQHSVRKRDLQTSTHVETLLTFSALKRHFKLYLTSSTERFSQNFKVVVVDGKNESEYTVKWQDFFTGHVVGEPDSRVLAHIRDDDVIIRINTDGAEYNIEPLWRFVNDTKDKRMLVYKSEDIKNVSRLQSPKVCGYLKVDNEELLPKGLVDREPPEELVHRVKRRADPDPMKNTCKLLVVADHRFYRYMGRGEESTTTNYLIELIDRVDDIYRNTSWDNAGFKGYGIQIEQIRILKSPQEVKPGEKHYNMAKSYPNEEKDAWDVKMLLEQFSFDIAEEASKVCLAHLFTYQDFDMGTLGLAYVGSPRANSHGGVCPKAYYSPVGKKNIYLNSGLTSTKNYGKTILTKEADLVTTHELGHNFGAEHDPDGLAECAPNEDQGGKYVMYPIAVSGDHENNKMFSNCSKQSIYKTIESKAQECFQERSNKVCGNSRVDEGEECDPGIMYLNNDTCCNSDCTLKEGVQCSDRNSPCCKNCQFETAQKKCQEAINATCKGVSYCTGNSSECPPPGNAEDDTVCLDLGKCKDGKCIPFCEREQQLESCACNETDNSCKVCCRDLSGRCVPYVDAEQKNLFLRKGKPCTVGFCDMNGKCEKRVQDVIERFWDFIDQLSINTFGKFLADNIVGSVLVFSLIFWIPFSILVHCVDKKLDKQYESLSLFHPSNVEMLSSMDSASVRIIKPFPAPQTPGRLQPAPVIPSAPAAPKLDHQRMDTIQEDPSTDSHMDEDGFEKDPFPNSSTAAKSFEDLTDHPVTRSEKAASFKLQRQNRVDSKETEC
# Metabotropic glutamate receptor 3, sequence (P31422 whole entry): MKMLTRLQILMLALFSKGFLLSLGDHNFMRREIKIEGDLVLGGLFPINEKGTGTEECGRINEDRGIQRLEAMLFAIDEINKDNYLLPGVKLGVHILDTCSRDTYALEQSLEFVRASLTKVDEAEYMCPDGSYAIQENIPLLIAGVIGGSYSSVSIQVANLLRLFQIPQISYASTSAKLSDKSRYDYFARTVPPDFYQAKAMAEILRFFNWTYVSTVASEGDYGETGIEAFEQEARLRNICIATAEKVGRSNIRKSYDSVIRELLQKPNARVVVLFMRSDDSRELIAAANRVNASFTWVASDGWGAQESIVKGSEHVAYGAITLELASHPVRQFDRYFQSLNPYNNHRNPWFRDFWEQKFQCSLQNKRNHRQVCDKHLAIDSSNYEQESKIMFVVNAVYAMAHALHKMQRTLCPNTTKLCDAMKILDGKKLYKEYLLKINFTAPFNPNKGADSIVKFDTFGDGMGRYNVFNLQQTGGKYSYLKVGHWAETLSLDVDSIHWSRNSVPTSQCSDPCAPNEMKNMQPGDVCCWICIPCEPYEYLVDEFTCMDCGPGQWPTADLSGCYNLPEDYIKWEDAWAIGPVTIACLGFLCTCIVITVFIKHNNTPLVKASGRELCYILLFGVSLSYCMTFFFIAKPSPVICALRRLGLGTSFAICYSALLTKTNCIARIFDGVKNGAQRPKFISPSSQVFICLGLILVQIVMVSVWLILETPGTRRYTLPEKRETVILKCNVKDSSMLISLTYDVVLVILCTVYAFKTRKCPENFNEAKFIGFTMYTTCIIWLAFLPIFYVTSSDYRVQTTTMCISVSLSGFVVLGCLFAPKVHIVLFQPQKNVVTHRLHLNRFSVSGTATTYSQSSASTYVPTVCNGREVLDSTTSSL
compound,measurement,setting,value
COc1ccccc1NC(=O)Cn1nc(-c2ccc(Cl)cc2)c2ccccc2c1=O,IC50,[1],> 69.5 µM (inactive)
same,IC50,[2],16.3 µM (inactive)
NC(=O)[C@H]1CC2(CC(c3cccc(NC(=O)CC(c4ccccc4)c4ccccc4)c3)=NO2)CN1C(=O)CC(c1ccccc1)c1ccccc1 (some centres undefined),IC50,[3],> 69.5 µM (inactive)
same,IC50,[4],> 69.5 µM (inactive)
CC(O)(c1ccc(F)c(F)c1)c1nc(-c2cccc(C(F)(F)F)c2)cs1 (centres undefined),IC50,[3],7.59 µM (active)
same,IC50,[4],> 69.5 µM (inactive)
CC(C)NC(=O)Nc1ccc2c(c1)C(=O)N([C@@H](C)CO)C[C@H](C)[C@@H](CN(C)Cc1ccc3c(c1)OCO3)OCCCC[C@@H](C)O2,AC50,HeLa,19.5 µM (active)
Cc1ccc(N/N=C(\C#N)C(=N)N2CCCCCC2)cc1,EC50,[5],> 67.5 µM (inactive)
C=CCC1(O)CCCN(C(=O)c2ccc(C#Cc3ccc(OC)cc3)cc2)C1 (centres undefined),IC50,[6],0.783 µM
CC(C)N1C[C@H](CN(C)Cc2ccc(Oc3ccccc3)cc2)Oc2c(NC(=O)c3ccncc3)cccc2C1=O,AC50,[7],0.00193 µM (active)
CN(C)C(=O)c1cccc(-c2ccc([C@H]3[C@H](CO)N4CCCCN(Cc5cccnc5)C[C@@H]34)cc2)c1,AC50,[7],0.481 µM (active)
COc1ccc(C#Cc2ccc(C(=O)N3CCCC(C)(C)C3)cc2)cc1,IC50,[6],2.01 µM
Oc1ccc(/C=N/CCc2ccccc2)cc1,IC50,cells [8],> 29.9 µM (inactive)
same,EC50,cells [9],> 29.9 µM (inactive)
